Laboratory results reported in US7008905B2, “Method of combating undesired plant growth on cereals” (BASF Aktiengesellschaft, priority 2000, dated 2006).

Assays:
Type in all cases: in vivo
HORVW = test: Pre-emergence test, selectivity; settings: 3 weeks after treatment, rating 0-100 (100=death), Table 2
Protocol: (§1) The pre-emergence tests involve spraying a liquid formulation of the compound onto the soil in which the seeds of the plant species mentioned above has recently been sown.
(§2) The soil used in the tests is a prepared horticultural loam. The formulations used in the tests are prepared from solutions of the test compounds in acetone containing 0.4% by weight of an alkylphenol/ethylene oxide condensate available under the trade mark TRITON X-155.
(§3) These acetone solutions are diluted with water and the resulting formulations applied at dosage levels corresponding to 15 g, 30 g, 60 g, 120 g or 240 g of active material per hectare in a volume equivalent to 900 liters per hectare. In these tests untreated sown soil is used as control. The herbicidal effects of the test compounds are assessed visually three weeks after spraying the soil and are recorded an a 0 to 100 scale. A rating 0 indicates growth as untreated control, a rating 100 indicates death. An increase of 10 unit an the linear scale approximates to a 10% increase in the level of effect. The results of the assessment are set out in Tables 1 to 4.

[1] = tested on: Triticum aestivum variety “Monopol”; test: Pre-emergence test, selectivity; settings: 3 weeks after treatment, rating 0-100 (100=death), Table 2
Protocol: as §1, §2, §3

[2] = tested on: Hordeum vulgare variety “Mammut”; test: Pre-emergence test, selectivity; settings: 3 weeks after treatment, rating 0-100 (100=death), Table 2
Protocol: as §1, §2, §3

[3] = tested on: Triticum aestivum variety “Kanzler”; test: Pre-emergence test, selectivity; settings: 3 weeks after treatment, rating 0-100 (100=death), Table 2
Protocol: as §1, §2, §3

Galium aparine [4] = test: Post-emergence test, weed control; settings: 2–4 weeks after treatment, rating 0-100 (100=death), Table 5
Protocol: (§4) These acetone solutions are diluted with water and the resulting formulations applied at dosage levels equivalent of about 0.030 to 0.240 kg per hectare of test compound per pot. After spraying the plants are placed an greenhouse benches and are cared for in the usual manner, commensurate with conventional greenhouse practices. From 2 to 4 weeks after treatment, the seedling plants are examined and rated according to the rating system provided above. A rating 0 indicates growth as untreated control, a rating 100 indicates death.

Setaria viridis [5] = test: Post-emergence test, weed control; settings: 2–4 weeks after treatment, rating 0-100 (100=death), Table 5
Protocol: as §4

VIOAR = test: Post-emergence test, weed control; settings: 2–4 weeks after treatment, rating 0-100 (100=death), Table 5
Protocol: as §4

Polygonum convolvulus [6] = test: Post-emergence test, weed control; settings: 2–4 weeks after treatment, rating 0-100 (100=death), Table 5
Protocol: as §4

Apera spica-venti = test: Pre-emergence test, weed control; settings: 3 weeks after treatment, rating 0-100 (100=death), Table 1
Protocol: as §1, §2
(§5) In these tests untreated sown soil is used as control. The herbicidal effects of the test compounds are assessed visually three weeks after spraying the soil and are recorded an a 0 to 100 scale. A rating 0 indicates growth as untreated control, a rating 100 indicates death. An increase of 10 unit an the linear scale approximates to a 10% increase in the level of effect. The results of the assessment are set out in Tables 1 to 4.

Matricaria inodora = test: Pre-emergence test, weed control; settings: 3 weeks after treatment, rating 0-100 (100=death), Table 1
Protocol: as §1, §2, §5

Poa annua = test: Pre-emergence test, weed control; settings: 3 weeks after treatment, rating 0-100 (100=death), Table 1
Protocol: as §1, §2, §5

Lolium perenne = test: Pre-emergence test, weed control; settings: 3 weeks after treatment, rating 0-100 (100=death), Table 1
Protocol: as §1, §2, §5

Galium aparine [7] = test: Pre-emergence test, weed control; settings: 3 weeks after treatment, rating 0-100 (100=death), Table 1
Protocol: as §1, §2, §5

Setaria viridis [8] = test: Pre-emergence test, weed control; settings: 3 weeks after treatment, rating 0-100 (100=death), Table 1
Protocol: as §1, §2, §5

Alopecurus myosuroides = test: Pre-emergence test, weed control; settings: 3 weeks after treatment, rating 0-100 (100=death), Table 1
Protocol: as §1, §2, §5

Veronica persica = test: Pre-emergence test, weed control; settings: 3 weeks after treatment, rating 0-100 (100=death), Table 1
Protocol: as §1, §2, §5

Polygonum convolvulus [9] = test: Pre-emergence test, weed control; settings: 3 weeks after treatment, rating 0-100 (100=death), Table 1
Protocol: as §1, §2, §5

Stellaria media = test: Pre-emergence test, weed control; settings: 3 weeks after treatment, rating 0-100 (100=death), Table 1
Protocol: as §1, §2, §5

Lamium purpureum = test: Pre-emergence test, weed control; settings: 3 weeks after treatment, rating 0-100 (100=death), Table 1
Protocol: as §1, §2, §5

What does the source list for `Cc1cnc(-c2ccc(C(F)(F)F)cc2)nc1Oc1cccc(C(F)(F)F)c1` [REF-1]?
HORVW rating (Selectivity) (HORVW; 0.015 kg/ha): 35; HORVW rating (Selectivity) (HORVW; 0.030 kg/ha): 45; HORVW rating (Selectivity) (HORVW; 0.060 kg/ha): 55; HORVW rating (Selectivity) (HORVW; 0.120 kg/ha): 60; HORVW rating (Selectivity) (HORVW; 0.240 kg/ha): 65; TRZAWM rating (Selectivity) ([1]; 0.015 kg/ha): 3; TRZAWM rating (Selectivity) ([1]; 0.030 kg/ha): 12; TRZAWM rating (Selectivity) ([1]; 0.060 kg/ha): 25; TRZAWM rating (Selectivity) ([1]; 0.120 kg/ha): 30; TRZAWM rating (Selectivity) ([1]; 0.240 kg/ha): 45; HORVWM rating (Selectivity) ([2]; 0.015 kg/ha): 25; HORVWM rating (Selectivity) ([2]; 0.030 kg/ha): 45; HORVWM rating (Selectivity) ([2]; 0.060 kg/ha): 45; HORVWM rating (Selectivity) ([2]; 0.120 kg/ha): 60; HORVWM rating (Selectivity) ([2]; 0.240 kg/ha): 65; TRZAWK rating (Selectivity) ([3]; 0.015 kg/ha): 3; TRZAWK rating (Selectivity) ([3]; 0.030 kg/ha): 10; TRZAWK rating (Selectivity) ([3]; 0.060 kg/ha): 25; TRZAWK rating (Selectivity) ([3]; 0.120 kg/ha): 25; TRZAWK rating (Selectivity) ([3]; 0.240 kg/ha): 40; GALAP weed control rating (Galium aparine [4]; 0.030 kg/ha): 80; GALAP weed control rating (Galium aparine [4]; 0.060 kg/ha): 85; GALAP weed control rating (Galium aparine [4]; 0.120 kg/ha): 92; GALAP weed control rating (Galium aparine [4]; 0.240 kg/ha): 92; SETVI weed control rating (Setaria viridis [5]; 0.030 kg/ha): 99; SETVI weed control rating (Setaria viridis [5]; 0.060 kg/ha): 99; SETVI weed control rating (Setaria viridis [5]; 0.120 kg/ha): 100; SETVI weed control rating (Setaria viridis [5]; 0.240 kg/ha): 100; VIOAR weed control rating (VIOAR; 0.030 kg/ha): 92; VIOAR weed control rating (VIOAR; 0.060 kg/ha): 93; VIOAR weed control rating (VIOAR; 0.120 kg/ha): 93; VIOAR weed control rating (VIOAR; 0.240 kg/ha): 95; POLCO weed control rating (Polygonum convolvulus [6]; 0.030 kg/ha): 15; POLCO weed control rating (Polygonum convolvulus [6]; 0.120 kg/ha): 25; POLCO weed control rating (Polygonum convolvulus [6]; 0.240 kg/ha): 70; APESV weed control rating (Apera spica-venti; 0.015 kg/ha): 100; APESV weed control rating (Apera spica-venti; 0.030 kg/ha): 100; APESV weed control rating (Apera spica-venti; 0.060 kg/ha): 100; APESV weed control rating (Apera spica-venti; 0.1 kg/ha): 100; APESV weed control rating (Apera spica-venti; 0.240 kg/ha): 100; MATIN weed control rating (Matricaria inodora; 0.015 kg/ha): 99; MATIN weed control rating (Matricaria inodora; 0.030 kg/ha): 99; MATIN weed control rating (Matricaria inodora; 0.060 kg/ha): 100; MATIN weed control rating (Matricaria inodora; 0.1 kg/ha): 100; MATIN weed control rating (Matricaria inodora; 0.240 kg/ha): 100; POAAN weed control rating (Poa annua; 0.015 kg/ha): 98; POAAN weed control rating (Poa annua; 0.030 kg/ha): 100; POAAN weed control rating (Poa annua; 0.060 kg/ha): 100; POAAN weed control rating (Poa annua; 0.1 kg/ha): 100; POAAN weed control rating (Poa annua; 0.240 kg/ha): 100; LOLPE weed control rating (Lolium perenne; 0.015 kg/ha): 80; LOLPE weed control rating (Lolium perenne; 0.030 kg/ha): 95; LOLPE weed control rating (Lolium perenne; 0.060 kg/ha): 99; LOLPE weed control rating (Lolium perenne; 0.1 kg/ha): 100; LOLPE weed control rating (Lolium perenne; 0.240 kg/ha): 100; GALAP weed control rating (Galium aparine [7]; 0.015 kg/ha): 5; GALAP weed control rating (Galium aparine [7]; 0.030 kg/ha): 15; GALAP weed control rating (Galium aparine [7]; 0.060 kg/ha): 50; GALAP weed control rating (Galium aparine [7]; 0.1 kg/ha): 75; GALAP weed control rating (Galium aparine [7]; 0.240 kg/ha): 95; SETVI weed control rating (Setaria viridis [8]; 0.015 kg/ha): 93; SETVI weed control rating (Setaria viridis [8]; 0.030 kg/ha): 100; SETVI weed control rating (Setaria viridis [8]; 0.060 kg/ha): 100; SETVI weed control rating (Setaria viridis [8]; 0.1 kg/ha): 100; SETVI weed control rating (Setaria viridis [8]; 0.240 kg/ha): 100; ALOMY weed control rating (Alopecurus myosuroides; 0.015 kg/ha): 65; ALOMY weed control rating (Alopecurus myosuroides; 0.030 kg/ha): 92; ALOMY weed control rating (Alopecurus myosuroides; 0.060 kg/ha): 100; ALOMY weed control rating (Alopecurus myosuroides; 0.1 kg/ha): 100; ALOMY weed control rating (Alopecurus myosuroides; 0.240 kg/ha): 100; VERPE weed control rating (Veronica persica; 0.015 kg/ha): 100; VERPE weed control rating (Veronica persica; 0.030 kg/ha): 100; VERPE weed control rating (Veronica persica; 0.060 kg/ha): 100; VERPE weed control rating (Veronica persica; 0.1 kg/ha): 100; VERPE weed control rating (Veronica persica; 0.240 kg/ha): 100; POLCO weed control rating (Polygonum convolvulus [9]; 0.015 kg/ha): 92; POLCO weed control rating (Polygonum convolvulus [9]; 0.030 kg/ha): 93; POLCO weed control rating (Polygonum convolvulus [9]; 0.060 kg/ha): 100; POLCO weed control rating (Polygonum convolvulus [9]; 0.1 kg/ha): 100; POLCO weed control rating (Polygonum convolvulus [9]; 0.240 kg/ha): 100; STEME weed control rating (Stellaria media; 0.030 kg/ha): 90; STEME weed control rating (Stellaria media; 0.060 kg/ha): 100; STEME weed control rating (Stellaria media; 0.1 kg/ha): 100; STEME weed control rating (Stellaria media; 0.240 kg/ha): 100; LAMPU weed control rating (Lamium purpureum; 0.015 kg/ha): 100; LAMPU weed control rating (Lamium purpureum; 0.030 kg/ha): 100; LAMPU weed control rating (Lamium purpureum; 0.060 kg/ha): 100; LAMPU weed control rating (Lamium purpureum; 0.1 kg/ha): 100; LAMPU weed control rating (Lamium purpureum; 0.240 kg/ha): 100
